# PubChem BioAssay AID256 (DTP/NCI, 2004)
# Inconclusive results and toxic doses are left out.
# System: CD2F1 mice, L1210 leukemia ip, survival T/C
# Assay: NCI In Vivo Anticancer Drug Screen. Data for tumor model L1210 Leukemia (intraperitoneal) in CD2F1 (CDF1) mice
# Conditions: higher = longer survival
# In short: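 Tumor-bearing mice (transplanted tumor) were split into treated and vehicle control groups, and the measured endpoint of each treated group was divided by that of its vehicle controls.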
# [1] = endpoint: mean survival time, dose: 25.0 mg/kg/injection, schedule: Q01DX009 (ip), vehicle: saline
# [2] = endpoint: mean survival time, dose: 12.5 mg/kg/injection, schedule: Q01DX009 (ip), vehicle: saline with Tween-80
# [3] = endpoint: mean survival time, dose: 25.0 mg/kg/injection, schedule: Q01DX009 (ip), vehicle: saline with Tween-80
# [4] = endpoint: mean survival time, dose: 50.0 mg/kg/injection, schedule: Q01DX009 (ip), vehicle: saline with Tween-80
# [5] = endpoint: mean survival time, dose: 100.0 mg/kg/injection, schedule: Q01DX009 (ip), vehicle: saline with Tween-80
# [6] = endpoint: mean survival time, dose: 200.0 mg/kg/injection, schedule: Q01DX009 (ip), vehicle: saline with Tween-80
# [7] = endpoint: mean survival time, dose: 100.0 mg/kg/injection, schedule: Q04DX003 (ip), vehicle: saline with Tween-80
# [8] = endpoint: mean survival time, dose: 200.0 mg/kg/injection, schedule: Q04DX003 (ip), vehicle: saline with Tween-80
# [9] = endpoint: mean survival time, dose: 400.0 mg/kg/injection, schedule: Q04DX003 (ip), vehicle: saline with Tween-80
# [10] = endpoint: mean survival time, dose: 400.0 mg/kg/injection, schedule: Q01DX009 (ip), vehicle: saline with Tween-80
# [11] = endpoint: mean survival time, dose: 100.0 mg/kg/injection, schedule: Q01DX001 (ip), vehicle: saline with Tween-80
# [12] = endpoint: mean survival time, dose: 200.0 mg/kg/injection, schedule: Q01DX001 (ip), vehicle: saline with Tween-80
smiles,measurement,setting,value
CC1(C)CC(NC2=NCCO2)CC(C)(C)N1,T/C,"endpoint: mean survival time, dose: 6.25 mg/kg/injection, schedule: Q01DX001 (ip), vehicle: saline",94 % of control
same,T/C,"endpoint: mean survival time, dose: 6.25 mg/kg/injection, schedule: Q01DX009 (ip), vehicle: saline",101 % of control
same,T/C,"endpoint: mean survival time, dose: 12.5 mg/kg/injection, schedule: Q01DX001 (ip), vehicle: saline",97 % of control
same,T/C,"endpoint: mean survival time, dose: 12.5 mg/kg/injection, schedule: Q01DX009 (ip), vehicle: saline",98 % of control
same,T/C,"endpoint: mean survival time, dose: 25.0 mg/kg/injection, schedule: Q01DX001 (ip), vehicle: saline",90 % of control
same,T/C,[1],96 % of control
COc1ccc(OCCOC(=O)Nc2cc(Cl)c(OC)cc2OC)cc1,T/C,[2],106 % of control
same,T/C,[3],103 % of control
same,T/C,[4],106 % of control
same,T/C,[5],92 % of control
same,T/C,[6],92 % of control
COc1ccc(/C=N\O)cc1OC,T/C,[7],101 % of control
same,T/C,[8],98 % of control
same,T/C,[9],87 % of control
O=C(CC(SCCN1CCOCC1)c1ccccc1)c1ccc([N+](=O)[O-])cc1 (stereo not given),T/C,"endpoint: mean survival time, dose: 100.0 mg/kg/injection, schedule: Q01DX001 (ip), vehicle: Klucel (hydroxypropylcellulose) (HPC)",93 % of control
same,T/C,"endpoint: mean survival time, dose: 200.0 mg/kg/injection, schedule: Q01DX001 (ip), vehicle: Klucel (hydroxypropylcellulose) (HPC)",93 % of control
Cc1ccc(S(=O)(=O)N2CCC2)cc1,T/C,[5],98 % of control
same,T/C,[7],100 % of control
same,T/C,[6],102 % of control
same,T/C,[8],100 % of control
same,T/C,[10],96 % of control
same,T/C,[9],97 % of control
CN(C(=O)c1cccnc1)c1ccccc1,T/C,[5],98 % of control
same,T/C,[6],101 % of control
same,T/C,[10],103 % of control
NC(CSC(c1ccccc1)(c1ccccc1)c1ccccc1)C(=O)NCC(=O)O (stereo not given),T/C,[1],110 % of control
same,T/C,"endpoint: mean survival time, dose: 200.0 mg/kg/injection, schedule: Q01DX009 (ip), vehicle: saline",171 % of control
COc1cc2cc(c1Cl)N(C)C(=O)CC(OC(=O)CC(C)C)C1(C)OC1C(C)C1CC(O)(NC(=O)O1)C(OC)/C=C/C=C(C)C2 (stereo not given),T/C,"endpoint: mean survival time, dose: 3.8 micrograms/kg/injection, schedule: Q01DX009 (ip), vehicle: saline + alcohol",103 % of control
same,T/C,"endpoint: mean survival time, dose: 7.5 micrograms/kg/injection, schedule: Q01DX009 (ip), vehicle: saline + alcohol",103 % of control
same,T/C,"endpoint: mean survival time, dose: 15.0 micrograms/kg/injection, schedule: Q01DX009 (ip), vehicle: saline + alcohol",112 % of control
same,T/C,"endpoint: mean survival time, dose: 30.0 micrograms/kg/injection, schedule: Q01DX009 (ip), vehicle: saline + alcohol",112 % of control
same,T/C,"endpoint: mean survival time, dose: 60.0 micrograms/kg/injection, schedule: Q01DX009 (ip), vehicle: saline + alcohol",111 % of control
Cc1cc(=O)[nH]c(-c2ccccc2)c1C(=O)O,T/C,"endpoint: mean survival time, dose: 100.0 mg/kg/injection, schedule: Q04DX002 (ip), vehicle: saline with Tween-80",95 % of control
same,T/C,"endpoint: mean survival time, dose: 200.0 mg/kg/injection, schedule: Q04DX002 (ip), vehicle: saline with Tween-80",95 % of control
same,T/C,"endpoint: mean survival time, dose: 400.0 mg/kg/injection, schedule: Q04DX002 (ip), vehicle: saline with Tween-80",95 % of control
NC(=O)CC=O,T/C,"endpoint: mean survival time, dose: 75.0 mg/kg/injection, schedule: Q01DX001 (ip), vehicle: saline",98 % of control
same,T/C,"endpoint: mean survival time, dose: 150.0 mg/kg/injection, schedule: Q01DX001 (ip), vehicle: saline",93 % of control
same,T/C,"endpoint: mean survival time, dose: 300.0 mg/kg/injection, schedule: Q01DX001 (ip), vehicle: saline",95 % of control
CC1NCCOC1c1ccccc1 (stereo not given),T/C,"endpoint: mean survival time, dose: 100.0 mg/kg/injection, schedule: Q04DX003 (ip), vehicle: saline",100 % of control
same,T/C,"endpoint: mean survival time, dose: 200.0 mg/kg/injection, schedule: Q04DX003 (ip), vehicle: saline",102 % of control
NC(=O)c1c(N)sc2c1CCCC2,T/C,"endpoint: mean survival time, dose: 6.25 mg/kg/injection, schedule: Q01DX009 (ip), vehicle: saline with Tween-80",96 % of control
same,T/C,"endpoint: mean survival time, dose: 6.25 mg/kg/injection, schedule: Q04DX003 (ip), vehicle: saline with Tween-80",107 % of control
same,T/C,[2],93 % of control
same,T/C,"endpoint: mean survival time, dose: 12.5 mg/kg/injection, schedule: Q04DX003 (ip), vehicle: saline with Tween-80",102 % of control
same,T/C,[3],95 % of control
same,T/C,"endpoint: mean survival time, dose: 25.0 mg/kg/injection, schedule: Q04DX003 (ip), vehicle: saline with Tween-80",100 % of control
O=C1C(c2ccccc2)=[N+]([O-])[N+]([O-])=C1c1ccccc1,T/C,"endpoint: mean survival time, dose: 50.0 mg/kg/injection, schedule: Q01DX009 (ip), vehicle: Klucel (hydroxypropylcellulose) (HPC)",97 % of control
same,T/C,"endpoint: mean survival time, dose: 100.0 mg/kg/injection, schedule: Q01DX009 (ip), vehicle: Klucel (hydroxypropylcellulose) (HPC)",97 % of control
same,T/C,"endpoint: mean survival time, dose: 200.0 mg/kg/injection, schedule: Q01DX009 (ip), vehicle: Klucel (hydroxypropylcellulose) (HPC)",101 % of control
CC1=NN(c2ccccc2)C(=O)C1N=Nc1ccccc1S(=O)(=O)O (stereo not given),T/C,[5],103 % of control
same,T/C,[7],97 % of control
same,T/C,[6],97 % of control
same,T/C,[8],103 % of control
same,T/C,[10],101 % of control
same,T/C,[9],112 % of control
NCc1ccc(OCc2nc(N)nc(N)c2-c2ccc(Cl)c(Cl)c2)cc1,T/C,[11],92 % of control
same,T/C,[12],91 % of control
COc1cc2c(cc1OC)C(CCNC(=O)CCCO)NCC2 (stereo not given),T/C,"endpoint: mean survival time, dose: 100.0 mg/kg/injection, schedule: Q01DX001 (ip), vehicle: saline sonified",97 % of control
same,T/C,"endpoint: mean survival time, dose: 100.0 mg/kg/injection, schedule: Q01DX009 (ip), vehicle: saline sonified",98 % of control
same,T/C,"endpoint: mean survival time, dose: 200.0 mg/kg/injection, schedule: Q01DX001 (ip), vehicle: saline sonified",100 % of control
same,T/C,"endpoint: mean survival time, dose: 200.0 mg/kg/injection, schedule: Q01DX009 (ip), vehicle: saline sonified",95 % of control
same,T/C,"endpoint: mean survival time, dose: 400.0 mg/kg/injection, schedule: Q01DX001 (ip), vehicle: saline sonified",100 % of control
same,T/C,"endpoint: mean survival time, dose: 400.0 mg/kg/injection, schedule: Q01DX009 (ip), vehicle: saline sonified",91 % of control
O=C(c1ccccc1)C(O)(Cc1ccccc1)c1ccccc1 (stereo not given),T/C,[7],96 % of control
same,T/C,[8],102 % of control
same,T/C,[9],97 % of control
C1CC1C(=NN=C(C1CC1)C1CC1)C1CC1,T/C,[3],97 % of control
same,T/C,[4],101 % of control
same,T/C,[7],86 % of control
O=C(OC1C(COP(=O)(Oc2ccccc2)Oc2ccccc2)OC(n2nc(SCc3ccccc3)c(=O)[nH]c2=O)C1OC(=O)c1ccccc1)c1ccccc1 (stereo not given),T/C,"endpoint: median survival time, dose: 12.5 mg/kg/injection, schedule: Q01DX005 (ip), vehicle: distilled water + Tween-80",96 % of control
same,T/C,"endpoint: median survival time, dose: 25.0 mg/kg/injection, schedule: Q01DX005 (ip), vehicle: distilled water + Tween-80",96 % of control
same,T/C,"endpoint: median survival time, dose: 50.0 mg/kg/injection, schedule: Q01DX005 (ip), vehicle: distilled water + Tween-80",97 % of control
same,T/C,"endpoint: median survival time, dose: 100.0 mg/kg/injection, schedule: Q01DX005 (ip), vehicle: distilled water + Tween-80",97 % of control
same,T/C,"endpoint: median survival time, dose: 200.0 mg/kg/injection, schedule: Q01DX005 (ip), vehicle: distilled water + Tween-80",96 % of control
CS(=O)(=O)OC1CCCCC1c1ccccc1 (stereo not given),T/C,"endpoint: mean survival time, dose: 100.0 mg/kg/injection, schedule: Q01DX001 (ip), vehicle: carboxymethylcellulose (CMC)",103 % of control
same,T/C,"endpoint: mean survival time, dose: 200.0 mg/kg/injection, schedule: Q01DX001 (ip), vehicle: carboxymethylcellulose (CMC)",103 % of control
same,T/C,"endpoint: mean survival time, dose: 400.0 mg/kg/injection, schedule: Q01DX001 (ip), vehicle: carboxymethylcellulose (CMC)",101 % of control
CC(=O)C1=CCC2[C@H]3CC=C4C[C@H](O)CC[C@@]4(C)C3CC[C@@]12C (stereo not given in full),T/C,"endpoint: mean survival time, dose: 100.0 mg/kg/injection, schedule: Q04DX003 (ip), vehicle: Klucel (hydroxypropylcellulose) (HPC)",103 % of control
same,T/C,"endpoint: mean survival time, dose: 200.0 mg/kg/injection, schedule: Q04DX003 (ip), vehicle: Klucel (hydroxypropylcellulose) (HPC)",103 % of control
same,T/C,"endpoint: mean survival time, dose: 400.0 mg/kg/injection, schedule: Q04DX003 (ip), vehicle: Klucel (hydroxypropylcellulose) (HPC)",103 % of control
Nc1ccc([N+](=O)[O-])cn1,T/C,"endpoint: mean survival time, dose: 75.0 mg/kg/injection, schedule: Q01DX009 (ip), vehicle: saline with Tween-80",94 % of control
same,T/C,[7],107 % of control
same,T/C,"endpoint: mean survival time, dose: 150.0 mg/kg/injection, schedule: Q01DX009 (ip), vehicle: saline with Tween-80",87 % of control
same,T/C,[8],103 % of control
same,T/C,"endpoint: mean survival time, dose: 300.0 mg/kg/injection, schedule: Q01DX009 (ip), vehicle: saline with Tween-80",93 % of control
same,T/C,[9],96 % of control
Cc1cccc(C)c1N1C(N)=NC(N)=NC1(C)C,T/C,"endpoint: mean survival time, dose: 100.0 mg/kg/injection, schedule: Q01DX001 (ip), vehicle: saline",101 % of control
same,T/C,"endpoint: mean survival time, dose: 200.0 mg/kg/injection, schedule: Q01DX001 (ip), vehicle: saline",93 % of control
same,T/C,"endpoint: mean survival time, dose: 400.0 mg/kg/injection, schedule: Q01DX001 (ip), vehicle: saline",93 % of control
O=[N+]([O-])c1cc(Br)cc(Br)c1[N+](=O)[O-],T/C,[11],97 % of control
same,T/C,[5],102 % of control
same,T/C,[12],89 % of control
same,T/C,[6],102 % of control
same,T/C,"endpoint: mean survival time, dose: 400.0 mg/kg/injection, schedule: Q01DX001 (ip), vehicle: saline with Tween-80",95 % of control
same,T/C,[10],98 % of control
